Test results reported in ChEMBL document CHEMBL2062394, “Azide-alkyne cycloaddition en route to novel 1H-1,2,3-triazole tethered isatin conjugates with in vitro cytotoxic evaluation” (Eur J Med Chem, 2012).

Key:
[1] = test system: PC-3; experiment: Growth inhibition of human PC3 cells at 1 uM after 48 hrs by SRB assay; assay type: functional; conditions: PC-3, 48 h, read-out: GI
[2] = test system: A549; experiment: Growth inhibition of human A549 cells at 1 uM after 48 hrs by SRB assay; assay type: functional; conditions: A549, 48 h, read-out: GI
[3] = test system: PC-3; experiment: Growth inhibition of human PC3 cells at 10 uM after 48 hrs by SRB assay; assay type: functional; conditions: PC-3, 48 h, read-out: GI
[4] = test system: Caco-2; experiment: Growth inhibition of human Caco2 cells at 10 uM after 48 hrs by SRB assay; assay type: functional; conditions: Caco-2, 48 h, read-out: GI
[5] = test system: A549; experiment: Growth inhibition of human A549 cells at 10 uM after 48 hrs by SRB assay; assay type: functional; conditions: A549, 48 h, read-out: GI
[6] = test system: PC-3; experiment: Growth inhibition of human PC3 cells after 48 hrs by SRB assay; assay type: functional, cell-based; conditions: for IC50: PC-3, 48 h
[7] = test system: PC-3; experiment: Growth inhibition of human PC3 cells at 100 uM after 48 hrs by SRB assay; assay type: functional; conditions: PC-3, 48 h, read-out: GI
[8] = test system: Caco-2; experiment: Growth inhibition of human Caco2 cells after 48 hrs by SRB assay; assay type: functional, cell-based; conditions: for IC50: Caco-2, 48 h
[9] = test system: Caco-2; experiment: Growth inhibition of human Caco2 cells at 50 uM after 48 hrs by SRB assay; assay type: functional; conditions: Caco-2, 48 h, read-out: GI
[10] = test system: THP-1; experiment: Growth inhibition of human THP1 cells at 10 uM after 48 hrs by SRB assay; assay type: functional; conditions: THP-1, 48 h, read-out: GI
[11] = test system: A549; experiment: Growth inhibition of human A549 cells after 48 hrs by SRB assay; assay type: functional, cell-based; conditions: for IC50: A549, 48 h
[12] = test system: Caco-2; experiment: Growth inhibition of human Caco2 cells at 100 uM after 48 hrs by SRB assay; assay type: functional; conditions: Caco-2, 48 h, read-out: GI
[13] = test system: THP-1; experiment: Growth inhibition of human THP1 cells at 50 uM after 48 hrs by SRB assay; assay type: functional; conditions: THP-1, 48 h, read-out: GI
[14] = test system: PC-3; experiment: Growth inhibition of human PC3 cells at 50 uM after 48 hrs by SRB assay; assay type: functional; conditions: PC-3, 48 h, read-out: GI
[15] = test system: THP-1; experiment: Growth inhibition of human THP1 cells at 100 uM after 48 hrs by SRB assay; assay type: functional; conditions: THP-1, 48 h, read-out: GI
[16] = test system: THP-1; experiment: Ratio of 5-fluorouracil IC50 to compound IC50 for human THP1 cells; assay type: functional
[17] = test system: A549; experiment: Growth inhibition of human A549 cells at 100 uM after 48 hrs by SRB assay; assay type: functional; conditions: A549, 48 h, read-out: GI
[18] = test system: A549; experiment: Growth inhibition of human A549 cells at 50 uM after 48 hrs by SRB assay; assay type: functional; conditions: A549, 48 h, read-out: GI
[19] = test system: THP-1; experiment: Growth inhibition of human THP1 cells after 48 hrs by SRB assay; assay type: functional, cell-based; conditions: for IC50: THP-1, 48 h
[20] = test system: THP-1; experiment: Growth inhibition of human THP1 cells at 20 uM after 48 hrs by SRB assay; assay type: functional; conditions: THP-1, 48 h, read-out: GI
[21] = test system: Caco-2; experiment: Growth inhibition of human Caco2 cells at 20 uM after 48 hrs by SRB assay; assay type: functional; conditions: Caco-2, 48 h, read-out: GI

Molecule `CO[C@@]12[C@H](COC(N)=O)C3=C(C(=O)C(C)=C(N)C3=O)N1C[C@@H]1N[C@@H]12` [MITOMYCIN] has an inhibition of growth at 1 µM [1] of 60%.

For `CC(=O)O[C@H]1C(=O)[C@@]2(C)[C@H]([C@H](OC(=O)c3ccccc3)[C@]3(O)C[C@H](OC(=O)[C@H](O)[C@@H](NC(=O)c4ccccc4)c4ccccc4)C(C)=C1C3(C)C)[C@]1(OC(C)=O)CO[C@@H]1C[C@@H]2O` [PACLITAXEL], the inhibition of growth at 1 µM [2] was 69%.

In the case of `Cc1ccc2c(c1)C(=O)C(=O)N2Cc1cn(CCN2C(=O)C(=O)c3cc(Cl)ccc32)nn1`, the inhibition of growth at 10 µM [3] is reported as 36%, the inhibition of growth at 10 µM [4] is reported as 39% and the inhibition of growth at 10 µM [5] is reported as 81%. The “growth inhibition (GI)” value [6] was “Dose-dependent effect”, the IC50 [6] was 32.6 µM and the inhibition of growth at 100 µM [7] was 70%. For the same molecule, the “growth inhibition (GI)” value [8] was “Dose-dependent effect”, the IC50 [8] was 44.9 µM and the inhibition of growth at 50 µM [9] was 52%. For the same molecule, the inhibition of growth at 10 µM [10] was 71%, the “growth inhibition (GI)” value [11] was “Dose-dependent effect” and the IC50 [11] was < 1 µM. For the same molecule, the inhibition of growth at 100 µM [12] was 56%, the inhibition of growth at 50 µM [13] was 91% and the inhibition of growth at 50 µM [14] was 55%. The inhibition of growth at 100 µM [15] was 92%, the “Ratio IC50” value [16] was 2 and the inhibition of growth at 100 µM [17] was 98%. The inhibition of growth at 50 µM [18] was 95%, the “growth inhibition (GI)” value [19] was “Dose-dependent effect” and the IC50 [19] was < 1 µM.

`Cc1ccc2c(c1)C(=O)C(=O)N2Cc1cn(CCN2C(=O)C(=O)c3ccccc32)nn1` was tested, and the inhibition of growth at 10 µM [3] was 63%, the inhibition of growth at 10 µM [4] was 0% and the inhibition of growth at 10 µM [5] was 35%. The “growth inhibition (GI)” value [6] was “Dose-dependent effect”, the IC50 [6] was 3.03 µM and the inhibition of growth at 100 µM [7] was 100%. For the same molecule, the “growth inhibition (GI)” value [8] was “Dose-dependent effect”, the IC50 [8] was > 100 µM and the inhibition of growth at 50 µM [9] was 0%. The inhibition of growth at 10 µM [10] was 89%, the “growth inhibition (GI)” value [11] was “Dose-dependent effect” and the IC50 [11] was 18.4 µM. It also gave an inhibition of growth at 100 µM [12] of 17%, an inhibition of growth at 50 µM [13] of 100% and an inhibition of growth at 50 µM [14] of 100%. For the same molecule, the inhibition of growth at 100 µM [15] was 100%, the “Ratio IC50” value [16] was 2 and the inhibition of growth at 100 µM [17] was 100%. For the same molecule, the inhibition of growth at 50 µM [18] was 99%, the “growth inhibition (GI)” value [19] was “Dose-dependent effect” and the IC50 [19] was < 1 µM.

Molecule `O=c1[nH]cc(F)c(=O)[nH]1` [FLUOROURACIL] has an inhibition of growth at 20 µM [20] of 70% and an inhibition of growth at 20 µM [21] of 68%.

`O=C1C(=O)N(CCn2cc(CN3C(=O)C(=O)c4cc(Br)ccc43)nn2)c2ccc(Cl)cc21` gave an inhibition of growth at 10 µM [3] of 29%, an inhibition of growth at 10 µM [4] of 36% and an inhibition of growth at 10 µM [5] of 10%. The “growth inhibition (GI)” value [6] was “Dose-dependent effect”, the IC50 [6] was 51.4 µM and the inhibition of growth at 100 µM [7] was 70%. For the same molecule, the “growth inhibition (GI)” value [8] was “Dose-dependent effect”, the IC50 [8] was 32.2 µM and the inhibition of growth at 50 µM [9] was 57%. The inhibition of growth at 10 µM [10] was 28%, the “growth inhibition (GI)” value [11] was “Dose-dependent effect” and the IC50 [11] was 42.2 µM. For the same molecule, the inhibition of growth at 100 µM [12] was 68%, the inhibition of growth at 50 µM [13] was 82% and the inhibition of growth at 50 µM [14] was 43%. It also gave an inhibition of growth at 100 µM [15] of 90%, an inhibition of growth at 100 µM [17] of 98% and an inhibition of growth at 50 µM [18] of 83%. For the same molecule, the “growth inhibition (GI)” value [19] was “Dose-dependent effect” and the IC50 [19] was 26.9 µM.

In the case of `O=C1C(=O)N(CCn2cc(CN3C(=O)C(=O)c4ccccc43)nn2)c2ccccc21`, the inhibition of growth at 10 µM [3] is reported as 99%, the inhibition of growth at 10 µM [4] is reported as 9% and the inhibition of growth at 10 µM [5] is reported as 96%. For the same molecule, the “growth inhibition (GI)” value [6] was “Dose-dependent effect”, the IC50 [6] was < 1 µM and the inhibition of growth at 100 µM [7] was 100%. For the same molecule, the “growth inhibition (GI)” value [8] was “Dose-dependent effect”, the IC50 [8] was > 100 µM and the inhibition of growth at 50 µM [9] was 20%. The inhibition of growth at 10 µM [10] was 100%, the “growth inhibition (GI)” value [11] was “Dose-dependent effect” and the IC50 [11] was < 1 µM. The inhibition of growth at 100 µM [12] was 36%, the inhibition of growth at 50 µM [13] was 100% and the inhibition of growth at 50 µM [14] was 100%. For the same molecule, the inhibition of growth at 100 µM [15] was 100%, the “Ratio IC50” value [16] was 2 and the inhibition of growth at 100 µM [17] was 99%. The inhibition of growth at 50 µM [18] was 98%, the “growth inhibition (GI)” value [19] was “Dose-dependent effect” and the IC50 [19] was < 1 µM.

`O=C1C(=O)N(CCn2cc(CN3C(=O)C(=O)c4cc(Cl)ccc43)nn2)c2ccccc21` showed an inhibition of growth at 10 µM [3] of 99%, an inhibition of growth at 10 µM [4] of 6% and an inhibition of growth at 10 µM [5] of 94%. The “growth inhibition (GI)” value [6] was “Dose-dependent effect”, the IC50 [6] was < 1 µM and the inhibition of growth at 100 µM [7] was 100%. For the same molecule, the “growth inhibition (GI)” value [8] was “Dose-dependent effect”, the IC50 [8] was > 100 µM and the inhibition of growth at 50 µM [9] was 24%. The inhibition of growth at 10 µM [10] was 80%, the “growth inhibition (GI)” value [11] was “Dose-dependent effect” and the IC50 [11] was < 1 µM. The inhibition of growth at 100 µM [12] was 38%, the inhibition of growth at 50 µM [13] was 90% and the inhibition of growth at 50 µM [14] was 100%. The inhibition of growth at 100 µM [15] was 100%, the “Ratio IC50” value [16] was 2 and the inhibition of growth at 100 µM [17] was 100%. For the same molecule, the inhibition of growth at 50 µM [18] was 98%, the “growth inhibition (GI)” value [19] was “Dose-dependent effect” and the IC50 [19] was < 1 µM.

`O=C1C(=O)N(CCn2cc(CN3C(=O)C(=O)c4cc(Br)ccc43)nn2)c2ccccc21` gave an inhibition of growth at 10 µM [3] of 94%, an inhibition of growth at 10 µM [4] of 1% and an inhibition of growth at 10 µM [5] of 41%. For the same molecule, the “growth inhibition (GI)” value [6] was “Dose-dependent effect”, the IC50 [6] was < 1 µM and the inhibition of growth at 100 µM [7] was 100%. For the same molecule, the “growth inhibition (GI)” value [8] was “Dose-dependent effect”, the IC50 [8] was > 100 µM and the inhibition of growth at 50 µM [9] was 10%. The inhibition of growth at 10 µM [10] was 10%, the “growth inhibition (GI)” value [11] was “Dose-dependent effect” and the IC50 [11] was 14.6 µM. It also gave an inhibition of growth at 100 µM [12] of 25%, an inhibition of growth at 50 µM [13] of 53% and an inhibition of growth at 50 µM [14] of 99%. It also gave an inhibition of growth at 100 µM [15] of 88%, an inhibition of growth at 100 µM [17] of 97% and an inhibition of growth at 50 µM [18] of 96%. The “growth inhibition (GI)” value [19] was “Dose-dependent effect” and the IC50 [19] was 51.9 µM.
